How the values were obtained:
5α-reductase 2 (5AR2) = test: Western blotting of 5AR2 in prostate tissue of BPH animal model; format: in vivo, SD rats; conditions: oral 1 mg/kg or 10 mg/kg, 4 weeks; depending on intake concentration
Experimental: (§1) All experiments were conducted in an aseptic environment. Three days after surgical recovery for the BPH-induced group (BPH), testosterone was dissolved in corn oil and then subcutaneously injected daily at 3 mg/kg, inducing BPH. For an Abeliophyllum distichum leaf ethanol extract-administered group (BPH+ADLE), an Abeliophyllum distichum leaf ethanol extract was dissolved in sterile distilled water and orally administered using a zonde at 100 mg/kg for 4 weeks. […]
(§2) For animal experimental groups, protein expression of androgen signaling-related factors, 5α-reductase 2 (5AR2), steroid receptor coactivator 1 (SRC1), an estrogen receptor (ER), and a prostate-specific antigen (PSA), were analyzed. […] Subsequently, bands were then detected using an Azure c300 imaging system (Azure Biosystems) by chemiluminescence with an HPR substrate (Advanta Inc., San Jose, CA, USA). Band intensities were quantified by setting the area of each sample using ImageJ software (NIH ver. 1.48, USA) and then setting the area of corresponding β-actin in the same manner as used above, and dividing the area of β-actin by the area of each sample.

BPH animal models = test: Prostate indexes in BPH animal model; format: in vivo, SD rats; conditions: 4 weeks
Experimental: All experiments were conducted in an aseptic environment. Three days after surgical recovery for the BPH-induced group (BPH), testosterone was dissolved in corn oil and then subcutaneously injected daily at 3 mg/kg, inducing BPH. For an Abeliophyllum distichum leaf ethanol extract-administered group (BPH+ADLE), an Abeliophyllum distichum leaf ethanol extract was dissolved in sterile distilled water and orally administered using a zonde at 100 mg/kg for 4 weeks. For a saw palmetto-administered group (BPH+Saw) as a positive control, saw palmetto was dissolved in sterile distilled water and orally administered at 100 mg/kg, and for a finasteride-administered group (BPH+Fi), finasteride was orally administered using a zonde at 1 mg/kg per day for 4 weeks. After the experiment, the rats were sacrificed using zoletil, blood samples were collected through heart puncture, and serum was then separated and stored at −80° C. The prostate was separated and weighed using RNAse-free surgical tools, and stored at −80° C., followed by western blotting.
Meanwhile, isoquercetin (IQ) administration was also performed in the same manner and using the same controls as described above, and for a low concentration-administered group (BPH+IQ1), IQ was dissolved in sterile distilled water and then orally administered at 1 mg/kg, and for a high concentration-administered group (BPH+IQ10), IQ was dissolved in sterile distilled water and then orally administered using a zonde at 10 mg/kg for 4 weeks.

PCNA = test: Western blotting of PCNA expression in testosterone-treated BPH-1 cells; format: cell-based; conditions: testosterone 100 nM, 25, 50 and 100 μM, 24 hours, concentration dependent
AR = test: Western blotting of AR in prostate tissue of BPH animal model; format: in vivo, SD rats; conditions: oral 1 mg/kg or 10 mg/kg, 4 weeks; depending on intake concentration
[1] = tested on: prostate-specific antigen (PSA); test: Western blotting of testosterone-induced PSA expression in LNCaP cells; format: cell-based; conditions: compared among IQ, Rutin, CA and IR
Experimental: (§3) The LNCaP cells (2×10^6) were seeded in 6-well plates, and treated with 100 nM testosterone propionate (TP, Tokyo Chemical Industry) and 100 μg/mL each of Abeliophyllum distichum leaf hot water (D.W.), ethanol (EtOH), and hexane (Hexane) extracts for 24 hours. Here, a group treated with 1 μg/mL finasteride (Fi), which is an androgen inhibiting drug, was used as a positive control. After finishing the treatment of the cells, an androgenic receptor signaling-inhibitory effect was analyzed using western blotting. First, the cells were lysed in a protein inhibitor cocktail (Sigma)-containing radioimmunoprecipitation assay (RIPA) buffer, and a protein concentration was estimated using a BCA assay, followed by electrophoresis in a 12% SDS polyacrylamide gel. The gel was then transferred to a membrane using Mini Trans-Blot cells (Bio rad). Subsequently, the membrane was treated with primary antibodies at 4° C. for 12 hours. […] Bands were then detected using an Azure c300 imaging system (Azure Biosystems) by chemiluminescence with an HPR substrate (Advansta Inc., San Jose, CA, USA). Band intensities were quantified by setting the area of each sample using ImageJ software (NIH ver. 1.48, USA) and then setting the area of corresponding β-actin in the same manner as used above, and dividing the area of β-actin by the area of each sample.

5 alpha reductase (5AR2) = test: Western blotting of testosterone-induced 5AR2 expression in LNCaP cells; format: cell-based
Experimental: as §3

cyclin D1 = test: Western blotting of cyclin D1 expression in testosterone-treated BPH-1 cells; format: cell-based; conditions: testosterone 100 nM, 25, 50 and 100 μM, 24 hours, concentration dependent
PI3K [2] = test: Western blotting of testosterone-induced PI3K expression in prostatic cells; format: cell-based; conditions: depending on the concentration of isoquercetin
PI3K [3] = test: Western blotting of PI3K expression in testosterone-treated BPH-1 cells; format: cell-based; conditions: testosterone 100 nM, 25, 50 and 100 μM, 24 hours, concentration dependent
[4] = tested on: steroid receptor coactivator 1 (SRC1); test: Western blotting of SRC1 in prostate tissue of BPH animal model; format: in vivo, SD rats; conditions: oral 1 mg/kg or 10 mg/kg, 4 weeks; depending on intake concentration
Experimental: as §1, §2

androgenic receptor (AR) = test: Western blotting of testosterone-induced AR expression in LNCaP cells; format: cell-based
Experimental: LNCaP cells were treated with testosterone propionate (TP) to induce androgenic receptor signaling, treated with Abeliophyllum distichum leaf hot water (D.W.), ethanol (EtOH), and hexane (Hexane) extracts, followed by confirming the efficacy of inhibiting the expression of an androgenic receptor (AR, SantaCruz), 5 alpha reductase (5AR2, ABCam), and prostate-specific antigen (PSA, SantaCruz) to compare the inhibitory effect on androgenic receptor signaling-related factors per Abeliophyllum distichum leaf extract LNCaP cells in LNCaP cells. The LNCaP cells (2×10^6) were seeded in 6-well plates, and treated with 100 nM testosterone propionate (TP, Tokyo Chemical Industry) and 100 μg/mL each of Abeliophyllum distichum leaf hot water (D.W.), ethanol (EtOH), and hexane (Hexane) extracts for 24 hours. […] After finishing the treatment of the cells, an androgenic receptor signaling-inhibitory effect was analyzed using western blotting. […] Bands were then detected using an Azure c300 imaging system (Azure Biosystems) by chemiluminescence with an HPR substrate (Advansta Inc., San Jose, CA, USA). Band intensities were quantified by setting the area of each sample using ImageJ software (NIH ver. 1.48, USA) and then setting the area of corresponding β-actin in the same manner as used above, and dividing the area of β-actin by the area of each sample. […]

[5] = oral 1 mg/kg or 10 mg/kg, compared to the BPH-induced model
[6] = compared among IQ, Rutin, CA and IR
[7] = testosterone-induced, depending on the concentration of isoquercetin

O=c1c(O[C@@H]2O[C@H](CO)[C@@H](O)[C@H](O)[C@H]2O)c(-c2ccc(O)c(O)c2)oc2cc(O)cc(O)c12 [isoquercetin, 3-(β-D-glucopyranosyloxy)-3′,4′,5,7-tetrahydroxyflavone]
expression level of 5AR2 in prostate tissue (5α-reductase 2 (5AR2)): reduced
prostate index (BPH animal models; oral 1 mg/kg and 10 mg/kg, depending on concentration): lowered
prostate weight (BPH animal models; [5]): significantly reduced
ratio of the prostate weight to a body weight (BPH animal models; [5]): significantly decreased
PCNA expression (PCNA): significantly reduced
expression level of AR in prostate tissue (AR): reduced
effect on testosterone-induced PSA expression level among four functional ingredient candidates [1]: most excellent effect
effect on testosterone-induced 5AR2 expression level among four functional ingredient candidates (5 alpha reductase (5AR2); [6]): most excellent effect
expression of 5AR2 (5 alpha reductase (5AR2); [7]): significantly reduced
cyclin D1 expression (cyclin D1): significantly reduced
expression of PI3K (PI3K [2]): significantly reduced
PI3K expression (PI3K [3]): significantly reduced
expression level of SRC-1 in prostate tissue [4]: reduced
effect on testosterone-induced AR expression level among four functional ingredient candidates (androgenic receptor (AR); [6]): most excellent effect
expression of AR (androgenic receptor (AR); [7]): significantly reduced
